# In patent publication US12427143B2, “Pharmaceutical composition for treating or preventing aging or age-related diseases” (INU RESEARCH & BUSINESS FOUNDATION, priority 2021, dated 2025):
# Changes are numbered by the printed parent chain.
# Columns and labels:
# senescent HDF cells = assay: Compound screening: cell proliferation of senescent fibroblasts (GelGreen fluorescence); type: cell-based, human; details: 27 drugs at 4 μM, 12 days, senescent HDF 1,000 cells per well
# Experimental: FIG. 1 depicts the results of potential target screening for recovering senescence. Each of compounds was treated to a 96 well plate seeded with 1000 senescent cells (4 μM). After incubation for 12 days, the cells were stained with Gel green solution (1:1,000 in D.W.). Cell number was determined via fluorescence measurement using fluorescence microplate reader (excitation/emission 485 nm/535 nm).
# Senescent fibroblasts were grown in 96-well plates at a density of 1,000 cells per well. Components from the library were diluted to a final concentration of 4 μM and added to the wells every 4 days. 12 days after drug treatment, cells were washed twice with phosphate-buffered saline (PBS) and lysed in 50 μl of 0.2% SDS. The plates were incubated at 37° C. for 1 h. GelGreen® Nucleic Acid Gel Stain (150 μl) (1:1,000 in DW; 41005; Biotium, Fremont, CA, USA) was added to the wells. Cell number was determined by measuring fluorescence intensity with VICTOR Multilabel Plate Reader (2030-0050; PerkinElmer, Waltham, MA, USA). The mean and standard deviation from six replicates were determined for each of experimental groups.
# Cellular senescence is characterized by cell cycle arrest, and the inventors identified a compound recovering cell cycle arrest with additional anti-senescence effects. […] Relative cell proliferation was measured in terms of the senescent HDF. […]
# [1] = molecular target: T1, Myc-14-3-3 zeta/delta(WT) / ATP synthase alpha and beta (Homo sapiens, UniProt P63104); assay: Co-immunoprecipitation of ATP synthase alpha and beta with Myc-14-3-3 zeta/delta(WT); type: cell-based; details: HEK293T, 4 μM
# T1 construct: expressed in transfected cells; host or cells: HEK293T (CRL-11268; ATCC)
# T1 sequence (P63104 1-245): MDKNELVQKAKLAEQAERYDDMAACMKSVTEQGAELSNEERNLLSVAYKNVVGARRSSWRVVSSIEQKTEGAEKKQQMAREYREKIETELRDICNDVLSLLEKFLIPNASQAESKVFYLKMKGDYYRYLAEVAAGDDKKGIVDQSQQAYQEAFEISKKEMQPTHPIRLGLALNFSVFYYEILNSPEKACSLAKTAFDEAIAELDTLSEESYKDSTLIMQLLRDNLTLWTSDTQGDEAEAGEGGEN
# Experimental: (§1) pCMV-Myc-14-3-3 zeta/delta(WT) plasmid and pCMV-Myc-14-3-3 zeta/delta(S58A) plasmid were transfected with HEK293T(CRL-11268; ATCC). […] The treated cells were digested with 0.1% NP-40 cell lysis buffer to destroy cells, and IP (immunoprecipitation) of MIC60 subunit was performed using AccuNanoBeadm Streptavidin Magnetic Nanobeads (TA-1015-1; Bioneer, Daejeon, Korea). IP of 14-3-3 zeta/delta(WT) and 14-3-3 zeta/delta(S58A) were performed using anti-Myc tag antibody.
# (§2) The PCR fragment of 14-3-3 zeta/delta (WT) and 14-3-3 zeta/delta (S58A) were separately cloned into pCMV-Myc-puromycin. HEK293T (CRL-11268; ATCC) were transfected with Lipofectaminem 2000 Transfection Reagent (11668-019; Thermo Scientific), Selection was carried out with puromycin 3 μg/ml.
# (§3) Therefore, the 58th serine region of 14-3-3 zeta/delta was mutated to alanine to investigate its function. Myc-tag 14-3-3 zeta/delta(WT) vector and 14-3-3 zeta/delta(S58A) vector were transfected and overexpressed with HEK293T. Additionally, their interactions with endogenous ATP synthase alpha and beta were confirmed by IP (FIG. 4B).
# (§4) As a result, ATP synthase alpha and beta proteins, which interacted with Myc-14-3-3 zeta/delta(WT) were increased KB1541 was treated to HEK293T at a concentration of 4 μM (FIG. 5B).
# [2] = molecular target: T2, Myc-14-3-3 zeta/delta (S58A) / ATP synthase alpha and beta (Homo sapiens, UniProt P63104, S58A); assay: Co-immunoprecipitation of ATP synthase alpha and beta with Myc-14-3-3 zeta/delta(S58A); type: cell-based; details: HEK293T, performed in the same way (4 μM)
# T2 construct: expressed in transfected cells; host or cells: HEK293T (CRL-11268; ATCC)
# T2 sequence (P63104 1-245 S58A): T1 sequence (P63104 1-245) with S58A
# Experimental: as §1, §2, §3, §4
# senescent HDF [3] = assay: Measurement of cellular ATP levels (oxphos and glycolysis portion); type: cell-based, human; details: versus senescent HDF
# Experimental: Cells were incubated in medium with or without 20 μM oligomycin for 24 h and then lysed with lysis buffer. ATP content was measured using a ViaLight Plus Kit (LT07-221; Lonza, Basel, Switzerland) according to the manufacturer's instructions. DNA content was measured using AccuBlue broad range dsDNA quantitation kit (31007; Biotium, Fremont, CA, USA). For measurements of relative ATP content, the luminescence of each sample was normalized to the DNA content.
# The inventors studied the changes in ATP production when assembling the ATP subunit based on the result of FIG. 4B. Oxphos portion was measured for identifying ATP resulting from oxidative phosphorylation in mitochondria cristae (FIG. 4C).
# Moreover, glycolysis portion was measured for assessing the amount of ATP during glycolysis (FIG. 4D).
# senescent HDF [4] = assay: Mitochondrial ROS by MitoSOX flow cytometry; type: cell-based, human; details: versus senescent HDF
# Experimental: (§5) FIG. 5 depicts the result of recovery of mitochondria based on the increased production of ATP. (A and B) Flow cytometric analysis of mitochondrial ROS and mitochondrial mass analysis using Mito tracker Green and MitoSOX; (C and D) measurement of non-glycotic glycolysis level and glycotic glycolysis level; (E) flow cytometry analysis of autophagosome level using CYTO-ID Green assay.
# (§6) For quantification of mitochondrial ROS, the cells were incubated in medium containing 5 μM MitoSOX (M36008; Life Technologies, Carlsbad, CA, USA) for 30 min at 37° C. For quantification of mitochondrial mass, the cells were incubated in medium containing 50 nM MitoTracker green (M22426; Life Technologies) for 30 min at 37° C. After staining, for the purpose of measuring mitochondrial membrane potential, cells were prepared for FACS analysis.
# Reactive oxygen species (ROS) was identified and measured, which damages homeostasis and metabolism of normal mitochondria.
# senescent HDF [5] = assay: Mitochondrial mass by MitoTracker green flow cytometry; type: cell-based, human; details: HDF treated with compound
# Experimental: as §5, §6
# (§7) The capability of removing organelles having dysfunction in senescent cells is deteriorated. Recovery of autophagy prevents accumulation of dysfunctional mitochondria and resulting in signs of senescence recovery. Mitochondrial mass and autophagy were measured for identifying the function. Mitochondrial mass decreased in HDF treated with KB1541(FIG. 5B). Moreover, autophagy level increased in HDF treated with KB1541(FIG. 5C).
# senescent HDF [6] = assay: Autophagy level (Cyto-ID flow cytometry); type: cell-based, human; details: HDF treated with compound
# Experimental: as §5
# Cells were incubated in medium containing 20 μM chloroquine (CQ; C6628, Sigma-Aldrich). At 24 h after incubation, cells were further stained with Cyto-ID staining solution and 50 nM LTDR (ENZ-51031-0050; ENZO, Lausen, Switzeland) for 30 min and prepared for FACS analysis. To measure background autofluorescence, cells were incubated in medium without dye. Fluorescence from Cyto-ID was normalized with fluorescence from LTDR. Autophagic flux was calculated using the following equation: ΔMFI Cyto-ID=MFI Cyto-ID (+CQ)/MFI Cyto-ID (−CQ).
# as §7
# senescent HDF [7] = assay: Seahorse analysis, ECAR (dependency of glycolysis); type: cell-based, human; details: HDF treated with compound, regardless of glucose
# Source text: as §5
# The XFe24 flux analyzer (Seahorse Bioscience XFe24 Instrument) was used according to the manufacturer's protocol. Briefly, 5×10^4 cells were distributed into each well of an XFe24 cell-culture plate from the XF24 FluxPak (100850-001; Seahorse Bioscience, North Billerica, MA, USA) and then cultured in a 5% CO2 incubator at a temperature of 37° C. for 16 h. Next, the medium was replaced by XF Assay medium (102365-100; Seahorse Bioscience), which lacked glucose, and the cells were then cultured for another 1 h in the same incubator. The extracellular acidification rate (ECAR) was measured using an XF Glycolysis Stress Test kit (102194-100; Seahorse Bioscience). ECAR was reported in mpH/min. As a metabolic shifter, aconitase inhibitor deferiprone (379409-5G; Sigma-Aldrich) was used.
# Lastly, dependency of glycolysis was measured via ECAR.
# Dependency of glycolysis in HDF treated with KB1541 decreased regardless of glucose like ATP study (FIGS. 5D and E).
# [8] = test system: senescent HDF mitochondria; assay: Transmission electron microscopy of mitochondrial cristae; type: cell-based, human
# Source text: FIG. 6 depicts the result of mitochondria recovery induced by KB1541. (A) HDF mitochondria observed in transmission electron microscope 21 days after treated with KB1541. From left: Senescent (DMSO), Senescent (KB1541); (B) the length of cristae observed in transmission electron microscope.
# The inventors studied level to cristae of mitochondria 12 days after senescent HDF treatment and identified senescence recovery. […] In graph where the images were quantified and represented, the length of cristae increased when treated with KB1541(FIG. 6B).
compound,measurement,setting,value
FC(F)(F)c1ccc(-c2nc3c(N4CCCC4)nc4ccccc4c3o2)cc1 [KB1541],"Relative cell proliferation, rank among screened compounds",senescent HDF cells,most effective compound on cell proliferation
same,ATP synthase alpha and beta proteins interacting with Myc-14-3-3 zeta/delta(WT),[1],increased
same,ATP synthase alpha and beta proteins interacting with Myc-14-3-3 zeta/delta (S58A),[2],did not change significantly
same,Glycolysis portion of ATP production,senescent HDF [3],reduced compared to senescent HDF
same,Oxphos portion of ATP production,senescent HDF [3],higher than senescent HDF
same,Reactive oxygen species (mitochondrial ROS),senescent HDF [4],decreased in half
same,Mitochondrial mass,senescent HDF [5],decreased
same,Autophagy level,senescent HDF [6],increased
same,Dependency of glycolysis (ECAR),senescent HDF [7],decreased
same,Folds (cristae) of mitochondria in electron microscope images,[8]; 12 days after treatment,restored as well as increased
same,Length of cristae,[8]; quantified TEM images,increased
